Measurements published in US7390789B2, “Thio-containing inhibitors of aminopeptidase P, and compositions thereof” (priority 2005, dated 2008).
Like-named read-outs stand apart in the source and are kept apart here.

Tests used:
[1] = molecular target: T1, rat membrane aminopeptidase P (Rattus norvegicus, UniProt Q99MA2); experiment: Inhibition of purified rat membrane aminopeptidase P with Arg-Pro-Pro substrate; assay type: biochemical
T1 sequence (Q99MA2 23-650): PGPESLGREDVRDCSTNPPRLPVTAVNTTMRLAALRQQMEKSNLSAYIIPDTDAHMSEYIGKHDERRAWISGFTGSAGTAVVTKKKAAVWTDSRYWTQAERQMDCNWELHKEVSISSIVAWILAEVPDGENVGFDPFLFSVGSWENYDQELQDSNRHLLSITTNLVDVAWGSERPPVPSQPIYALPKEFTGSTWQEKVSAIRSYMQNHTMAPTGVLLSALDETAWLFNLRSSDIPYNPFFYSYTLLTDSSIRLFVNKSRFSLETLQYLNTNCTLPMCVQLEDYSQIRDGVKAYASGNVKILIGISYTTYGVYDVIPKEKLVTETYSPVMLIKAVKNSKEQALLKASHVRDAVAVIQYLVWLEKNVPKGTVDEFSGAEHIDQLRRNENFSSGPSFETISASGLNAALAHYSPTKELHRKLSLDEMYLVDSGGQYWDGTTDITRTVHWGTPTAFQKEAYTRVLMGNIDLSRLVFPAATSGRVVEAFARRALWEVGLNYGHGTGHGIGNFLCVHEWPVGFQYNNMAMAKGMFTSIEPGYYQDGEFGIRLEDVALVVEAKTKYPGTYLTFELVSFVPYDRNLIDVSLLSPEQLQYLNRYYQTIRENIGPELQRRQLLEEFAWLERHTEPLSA
Procedure: The IC50 for each of compounds IV-VIII was determined as the concentration in nmoles/liter (nM) required to inhibit rat membrane aminopeptidase P by 50% using Arg-Pro-Pro (0.5 mM) as the substrate. […] See Maggiora et al.,

blood pressure = conditions: rat model of severe hypertension; cited from earlier work
isolated perfused heart = conditions: cited from earlier work
myocardial infarct size = conditions: intact rats subjected to regional cardiac ischemia; cited from earlier work
aminopeptidase P = conditions: cited from earlier work
bradykinin degradation = conditions: isolated perfused rat heart and lung; cited from earlier work
[2] = test system: bradykinin vasodepressor response; conditions: cited from earlier work
[3] = purified rat membrane aminopeptidase P, Arg-Pro-Pro (0.5 mM) as the substrate, read-out: Binding affinity (IC50 in nanomolar)

In the case of `CC(NC(=O)C1CCCN1C(=O)C1CCCN1C(=O)CS)C(N)=O` (stereo not drawn) [Analog 1, N-mercaptoacetyl-Pro-Pro-Ala-NH2], the IC50 ([1]; rat mAPP, read-out: IC50) is reported as 3400 nM.
`CCCCC(S)C(=O)N1CCCC1C(=O)N1CCCC1C(=O)NC(C)C(N)=O` [Analog 2, N-[(R)-2-mercaptohexanoyl]-Pro-Pro-Ala-NH2] showed an IC50 [1, 3] of 130 nM.
For `CCCCC(S)C(=O)N1CCCC1C(=O)N1C(C)CCC1C(=O)NC(C)C(N)=O` [Analog 3, N-[(R)-2-mercaptohexanoyl]-Pro-MePro-Ala-NH2], the IC50 [1, 3] was 170 nM.
Compound `O=C(O)CCNC(=O)[C@@H]1CCCN1C(=O)[C@@H]1CCCN1C(=O)[C@@H](S)C1CCCCC1` [Analog 4, N-[(S)-2-mercapto-2-cyclohexylacetyl]-Pro-Pro-β-Ala-OH] has an IC50 [1, 3] of 87 nM.
Work on `CCC(C)C(S)C(=O)N1CCCC1C(=O)N1CCCC1C(=O)NC(C)C(N)=O` [Analog 5, N-[(2S, 3S)-2-mercapto-3-methylpentanoyl]-Pro-Pro-Ala-NH2] yielded an IC50 [1, 3] of 10 nM.
For `C[C@H](NC(=O)[C@@H]1CCCN1C(=O)[C@@H]1CCCN1C(=O)[C@@H](O)[C@H](N)Cc1ccccc1)C(N)=O` [apstatin], the “blood pressure reduction with an ACE inhibitor” value (blood pressure) is given as “acted synergistically with an ACE inhibitor to reduce blood pressure to normal”, the “reduction of reperfusion-induced ventricular fibrillation” value (isolated perfused heart) is given as “by a similar amount” and the “reduction of cardiac damage” value (isolated perfused heart; heart attack model) is given as 74%. The myocardial infarct size (myocardial infarct size) was “substantially reduced myocardial infarct size”, the potency (aminopeptidase P) was “micromolar” and the bradykinin degradation (bradykinin degradation) was “reduce bradykinin degradation”. For the same compound, the “effect on blood pressure-lowering effects of intravenously administered bradykinin” value ([2]; rat, in vivo, iv) was “enhanced” and the “dose at which bradykinin potentiation has been observed” value ([2]; rats, intravenously, administered over a one hour period) was 0.08 to 0.8 mg/kg.
